Test results reported in ChEMBL document CHEMBL5505997, “Synthesis and biological evaluation of novel peptidomimetic inhibitors of the coronavirus 3C-like protease” (Eur J Med Chem, 2024).

Legend:
[1] = system: SARS-CoV-2; assay: Antiviral activity against SARS-CoV-2 WA1 harboring NSP5 T21I mutant infected in HEK293T cells measured after 48 hrs by Nano-Glo luciferase assay; format: functional, organism-based, Severe acute respiratory syndrome coronavirus 2
[2] = system: SARS-CoV-2; assay: Antiviral activity against SARS-CoV-2 WA1 harboring NSP5 E166V mutant infected in HEK293T cells measured after 48 hrs by Nano-Glo luciferase assay; format: functional, organism-based, Severe acute respiratory syndrome coronavirus 2
[3] = system: SARS-CoV-2; assay: Antiviral activity against SARS-CoV-2 WA1 harboring NSP5 T21I/E166V mutant infected in HEK293T cells measured after 48 hrs by Nano-Glo luciferase assay; format: functional, organism-based, Severe acute respiratory syndrome coronavirus 2
[4] = system: SARS-CoV-2; assay: Antiviral activity against SARS-CoV-2 WA1 harboring NSP5 L50F/E166V mutant infected in HEK293T cells measured after 48 hrs by Nano-Glo luciferase assay; format: functional, organism-based, Severe acute respiratory syndrome coronavirus 2
[5] = system: SARS-CoV-2; assay: Antiviral activity against SARS-CoV-2 WA1 harboring NSP5 L50F/E166A/L167F mutant infected in HEK293T cells measured after 48 hrs by Nano-Glo luciferase assay; format: functional, organism-based, Severe acute respiratory syndrome coronavirus 2
[6] = system: SARS-CoV-2; assay: Selectivity ratio of EC50 for antiviral activity against SARS-CoV-2 WA1 harboring NSP5 T21I mutant infected in HEK293T cells to EC50 for antiviral activity against wild type SARS-CoV-2 WA1 infected in HEK293T cells; format: functional
[7] = system: SARS-CoV-2; assay: Selectivity ratio of EC50 for antiviral activity against SARS-CoV-2 WA1 harboring NSP5 E166V mutant infected in HEK293T cells to EC50 for antiviral activity against wild type SARS-CoV-2 WA1 infected in HEK293T cells; format: functional
[8] = system: SARS-CoV-2; assay: Selectivity ratio of EC50 for antiviral activity against SARS-CoV-2 WA1 harboring NSP5 T21I/E166V mutant infected in HEK293T cells to EC50 for antiviral activity against wild type SARS-CoV-2 WA1 infected in HEK293T cells; format: functional
[9] = system: SARS-CoV-2; assay: Selectivity ratio of EC50 for antiviral activity against SARS-CoV-2 WA1 harboring NSP5 L50F/E166V mutant infected in HEK293T cells to EC50 for antiviral activity against wild type SARS-CoV-2 WA1 infected in HEK293T cells; format: functional
[10] = system: SARS-CoV-2; assay: Selectivity ratio of EC50 for antiviral activity against SARS-CoV-2 WA1 harboring NSP5 L50F/E166A/L167F mutant infected in HEK293T cells to EC50 for antiviral activity against wild type SARS-CoV-2 WA1 infected in HEK293T cells; format: functional
[11] = system: SARS-CoV-2; assay: Antiviral activity against SARS-CoV-2 Omicron BA.1 harboring NSP5 T21I mutant infected in HEK293T cells measured after 48 hrs by Nano-Glo luciferase assay; format: functional, organism-based, Severe acute respiratory syndrome coronavirus 2
[12] = system: SARS-CoV-2; assay: Antiviral activity against SARS-CoV-2 Omicron BA.1 harboring NSP5 E166V mutant infected in HEK293T cells measured after 48 hrs by Nano-Glo luciferase assay; format: functional, organism-based, Severe acute respiratory syndrome coronavirus 2
[13] = system: SARS-CoV-2; assay: Antiviral activity against SARS-CoV-2 Omicron BA.1 harboring NSP5 T21I/E166V mutant infected in HEK293T cells measured after 48 hrs by Nano-Glo luciferase assay; format: functional, organism-based, Severe acute respiratory syndrome coronavirus 2
[14] = system: SARS-CoV-2; assay: Antiviral activity against SARS-CoV-2 Omicron BA.1 harboring NSP5 L50F/E166V mutant infected in HEK293T cells measured after 48 hrs by Nano-Glo luciferase assay; format: functional, organism-based, Severe acute respiratory syndrome coronavirus 2
[15] = system: SARS-CoV-2; assay: Antiviral activity against SARS-CoV-2 Omicron BA.1 harboring NSP5 L50F/E166A/L167F mutant infected in HEK293T cells measured after 48 hrs by Nano-Glo luciferase assay; format: functional, organism-based, Severe acute respiratory syndrome coronavirus 2
[16] = system: SARS-CoV-2; assay: Selectivity ratio of EC50 for antiviral activity against SARS-CoV-2 Omicron BA.1 harboring NSP5 T21I mutant infected in HEK293T cells to EC50 for antiviral activity against wild type SARS-CoV-2 Omicron BA.1 infected in HEK293T cells; format: functional
[17] = system: SARS-CoV-2; assay: Selectivity ratio of EC50 for antiviral activity against SARS-CoV-2 Omicron BA.1 harboring NSP5 E166V mutant infected in HEK293T cells to EC50 for antiviral activity against wild type SARS-CoV-2 Omicron BA.1 infected in HEK293T cells; format: functional
[18] = system: SARS-CoV-2; assay: Selectivity ratio of EC50 for antiviral activity against SARS-CoV-2 Omicron BA.1 harboring NSP5 T21I/E166V mutant infected in HEK293T cells to EC50 for antiviral activity against wild type SARS-CoV-2 Omicron BA.1 infected in HEK293T cells; format: functional
[19] = system: SARS-CoV-2; assay: Selectivity ratio of EC50 for antiviral activity against SARS-CoV-2 Omicron BA.1 harboring NSP5 L50F/E166V mutant infected in HEK293T cells to EC50 for antiviral activity against wild type SARS-CoV-2 Omicron BA.1 infected in HEK293T cells; format: functional
[20] = system: SARS-CoV-2; assay: Selectivity ratio of EC50 for antiviral activity against SARS-CoV-2 Omicron BA.1 harboring NSP5 L50F/E166A/L167F mutant infected in HEK293T cells to EC50 for antiviral activity against wild type SARS-CoV-2 Omicron BA.1 infected in HEK293T cells; format: functional

Row | Compound | EC50 [1] [nM] | EC50 [2] [nM] | EC50 [3] [nM] | EC50 [4] [nM] | EC50 [5] [nM] | Ratio EC50 [6] | Ratio EC50 [7] | Ratio EC50 [8] | Ratio EC50 [9] | Ratio EC50 [10] | EC50 [11] [nM] | EC50 [12] [nM] | EC50 [13] [nM] | EC50 [14] [nM] | EC50 [15] [nM] | Ratio EC50 [16] | Ratio EC50 [17] | Ratio EC50 [18] | Ratio EC50 [19] | Ratio EC50 [20]
1 | Cc1cc(C(=O)N[C@@H](Cc2cccc3ccccc23)C(=O)N[C@@H](CC(C)C)C(=O)N[C@H](C=O)C[C@@H]2CCCNC2=O)no1 | 360 | 130 | 170 | 170 | 390 | 1.8 | 0.6 | 0.8 | 0.9 | 2 | 680 | 80 | 150 | 150 | 490 | 2.1 | 0.2 | 0.5 | 0.5 | 1.5
2 | CCC(CC)COC(=O)[C@H](C)N[P@](=O)(OC[C@H]1O[C@@](C#N)(c2ccc3c(N)ncnn23)[C@H](O)[C@@H]1O)Oc1ccccc1 |  | 11 |  | 7 | 11 |  | 1.1 |  | 0.7 | 1.1 |  | 6 |  | 6 | 9 |  | 0.4 |  | 0.4 | 0.7
3 | CC(C)(C)[C@H](NC(=O)C(F)(F)F)C(=O)N1C[C@H]2[C@@H]([C@H]1C(=O)N[C@H](C#N)C[C@@H]1CCNC1=O)C2(C)C | 80 | 4500 | 8500 | 3900 | 610 |  |  |  |  |  | 280 | 7300 | 12000 | 8600 | 2900 |  |  |  |  | 
